“And” between values parts separate entries of the source, which are not always exact repeats. Equal values may be shown once. After the bases stand the sugars from the 5' end (letter, count) and the backbone: PS all phosphorothioate, else s phosphorothioate and o phosphodiester by linkage. Methylation of C is not given here. e = 2'-O-(2-methoxyethyl) (MOE); l = locked nucleic acid (LNA); k = constrained ethyl (cEt); d = 2'-deoxy (DNA)
Assays:
ANGPTL2 = conditions: ASO
KRAS = conditions: ASO

“AACCATTTTGAGATTCC (sugars l4 d11 l2, PS)” was tested, and the target mRNA inhibition (ANGPTL2; 5 µM) was 67.7% and the target mRNA inhibition (ANGPTL2; 25 µM) was 81.3%.
“AACCATTTTGAGATTCCC (sugars l3 d13 l2, PS)” showed a target mRNA inhibition (ANGPTL2; 5 µM) of 40.2% and a target mRNA inhibition (ANGPTL2; 25 µM) of 52.7%.
Work on “ACAAGCCAGTTGTATGT (sugars l1 d12 l4, PS)” yielded a target mRNA inhibition (ANGPTL2; 5 µM) of 58.2% and a target mRNA inhibition (ANGPTL2; 25 µM) of 72.3%.
With “ACACCCAAGACTCAGAT (sugars l4 d11 l2, PS)” the target mRNA inhibition (ANGPTL2; 5 µM) was 6.49% and the target mRNA inhibition (ANGPTL2; 25 µM) was 5.75%.
“ACAGGGAAAGAATTTGGGTC (sugars l1 d16 l3, PS)” gave a target mRNA inhibition (ANGPTL2; 5 µM) of 44.4% and a target mRNA inhibition (ANGPTL2; 25 µM) of 37.5%.
“AGCTCATTGTTGAGCAG (sugars l1 d13 l3, PS)” was tested, and the target mRNA inhibition (ANGPTL2; 5 µM) was 4.81% and the target mRNA inhibition (ANGPTL2; 25 µM) was 13.2%.
“AGGCCAACACTAACTCG (sugars l2 d13 l2, PS)” was tested, and the target mRNA inhibition (ANGPTL2; 5 µM) was 70.5% and the target mRNA inhibition (ANGPTL2; 25 µM) was 78.8%.
Sequence “AGGGGCTATGACTATCC (sugars l1 d14 l2, PS)” has a target mRNA inhibition (ANGPTL2; 5 µM) of 41.3% and a target mRNA inhibition (ANGPTL2; 25 µM) of 45.9%.
“AGTTCTGTTTGATCTTC (sugars l2 d11 l4, PS)” showed a target mRNA inhibition (ANGPTL2; 5 µM) of 52.7% and a target mRNA inhibition (ANGPTL2; 25 µM) of 69.2%.
Sequence “AGTTGATAGTTTATCTCC (sugars l2 d14 l2, PS)” has a target mRNA inhibition (ANGPTL2; 5 µM) of 51.7% and a target mRNA inhibition (ANGPTL2; 25 µM) of 64.9%.
“CAGCTCATTGTTGAGCA (sugars l2 d13 l2, PS)” gave a target mRNA inhibition (ANGPTL2; 5 µM) of 0.32%.
“CAGGTGCTGGTACTTGTG (sugars l1 d15 l2, PS)” gave a target mRNA inhibition (ANGPTL2; 5 µM) of 40.4% and a target mRNA inhibition (ANGPTL2; 25 µM) of 54.2%.
CCAGCCGCAGCTTATA (sugars l1 d13 l2, PS) was tested, and the target mRNA inhibition (ANGPTL2; 5 µM) was 21.8% and the target mRNA inhibition (ANGPTL2; 25 µM) was 35.3%.
Sequence “CCAGGCAGTTTCTTATG (sugars l1 d13 l3, PS)” has a target mRNA inhibition (ANGPTL2; 5 µM) of 16.4% and a target mRNA inhibition (ANGPTL2; 25 µM) of 25.8%.
Sequence “CCTTTTCACTCTCAATAT (sugars l3 d13 l2, PS)” has a target mRNA inhibition (ANGPTL2; 5 µM) of 36.8% and a target mRNA inhibition (ANGPTL2; 25 µM) of 43.5%.
“CGGTTGTAGGTGGGTGG (sugars l1 d14 l2, PS)” showed a target mRNA inhibition (ANGPTL2; 5 µM) of 21.1% and a target mRNA inhibition (ANGPTL2; 25 µM) of -3.3%.
“CTATCCTCTCCCAAACATG (sugars l1 d16 l2, PS)” gave a target mRNA inhibition (ANGPTL2; 5 µM) of 16% and a target mRNA inhibition (ANGPTL2; 25 µM) of 24.1%.
CTCCGGTAATGGCCC (sugars l1 d12 l2, PS) gave a target mRNA inhibition (ANGPTL2; 5 µM) of -5% and a target mRNA inhibition (ANGPTL2; 25 µM) of 15.6%.
“GAACCATTTTGAGATTCC (sugars l3 d13 l2, PS)” gave a target mRNA inhibition (ANGPTL2; 5 µM) of 56.6% and a target mRNA inhibition (ANGPTL2; 25 µM) of 52%.
For “GAACCATTTTGAGATTCCC (sugars l1 d16 l2, PS)”, the target mRNA inhibition (ANGPTL2; 5 µM) was 27.6% and the target mRNA inhibition (ANGPTL2; 25 µM) was 7.84%.
GAGCCTTTACATGCCG (sugars l2 d12 l2, PS) gave a target mRNA inhibition (ANGPTL2; 5 µM) of 41% and a target mRNA inhibition (ANGPTL2; 25 µM) of 66.8%.
With “GAGTTGAAGGGAGGTGC (sugars l1 d14 l2, PS)” the target mRNA inhibition (ANGPTL2; 5 µM) was 17.7% and the target mRNA inhibition (ANGPTL2; 25 µM) was -10.3%.
For “GCAAAGGTCAGAAACATC (sugars l3 d12 l3, PS)”, the target mRNA inhibition (ANGPTL2; 5 µM) was 28.8% and the target mRNA inhibition (ANGPTL2; 25 µM) was 37.7%.
Sequence “GCTGGAAAGAGGGATAGA (sugars l2 d14 l2, PS)” has a target mRNA inhibition (ANGPTL2; 5 µM) of 60.7% and a target mRNA inhibition (ANGPTL2; 25 µM) of 66.2%.
Work on “TAGTGGGCACAGTTTCC (sugars l1 d14 l2, PS)” yielded a target mRNA inhibition (ANGPTL2; 5 µM) of 21.2% and a target mRNA inhibition (ANGPTL2; 25 µM) of 36.4%.
“TCCAGGGTGGTGAACTG (sugars l2 d13 l2, PS)” was tested, and the target mRNA inhibition (ANGPTL2; 5 µM) was 25.1% and the target mRNA inhibition (ANGPTL2; 25 µM) was 23.2%.
TCCATTTATGTGACTA (sugars k3 d10 k3, PS) was tested, and the target mRNA inhibition (KRAS; A431, 0.185 µM) was 29%, the target mRNA inhibition (KRAS; A431, 0.556 µM) was 59% and the target mRNA inhibition (KRAS; A431, 1.667 µM) was 65%. For the same sequence, the target mRNA inhibition (KRAS; A431, 5 µM) was 78%.
“TCCATTTATGTGACTA (sugars kkdddddddddkekek, PS)” showed a target mRNA inhibition (KRAS; A431, 2 µM) of 32%.
In the case of TCTATGAAAGCTCAAA (sugars k3 d10 k3, PS), the target mRNA inhibition (KRAS; A431, 2 µM) is reported as 18%.
Sequence TCTCCATTAGTAAATA (sugars k3 d10 k3, PS) has a target mRNA inhibition (KRAS; A431, 2 µM) of 13%.
TCTTGATTTGTCAGCA (sugars k3 d10 k3, PS) was tested, and the target mRNA inhibition (KRAS; A431, 0.185 µM) was 13% and 0%, the target mRNA inhibition (KRAS; A431, 0.556 µM) was 22% and 21% and the target mRNA inhibition (KRAS; A431, 1.667 µM) was 60% and 47%. For the same sequence, the target mRNA inhibition (KRAS; A431, 2 µM) was 62% and the target mRNA inhibition (KRAS; A431, 5 µM) was 75% and 69%.
“TGAAGGAAAGTAGGAGGGA (sugars l1 d15 l3, PS)” was tested, and the target mRNA inhibition (ANGPTL2; 5 µM) was 10.6% and the target mRNA inhibition (ANGPTL2; 25 µM) was 16.5%.
With TGATGCGGTTGTAGGT (sugars l2 d12 l2, PS) the target mRNA inhibition (ANGPTL2; 5 µM) was 73.2%.
“TGATTTGTCAGCAGGA (sugars kkddddddddddkeke, PS)” gave a target mRNA inhibition (KRAS; A431, 0.185 µM) of 31%, a target mRNA inhibition (KRAS; A431, 0.556 µM) of 48% and a target mRNA inhibition (KRAS; A431, 1.667 µM) of 67%. It also gave a target mRNA inhibition (KRAS; A431, 2 µM) of 55% and a target mRNA inhibition (KRAS; A431, 5 µM) of 8%.
In the case of “TGATTTGTCAGCAGGA (sugars kkddddddddkekekk, PS)”, the target mRNA inhibition (KRAS; A431, 2 µM) is reported as 32% and 17%.
Work on “TGCTGTGAAACTCTCT (sugars k3 d9 k3 e1, PS)” yielded a target mRNA inhibition (KRAS; A431, 2 µM) of 23%.
With TGGTGAATATCTTCAA (sugars k3 d10 k3, PS) the target mRNA inhibition (KRAS; A431, 2 µM) was 9%.
Work on “TGGTGTAACATAGGTT (sugars k3 d9 k3 e1, PS)” yielded a target mRNA inhibition (KRAS; A431, 0.185 µM) of 21%, a target mRNA inhibition (KRAS; A431, 0.556 µM) of 46% and a target mRNA inhibition (KRAS; A431, 1.667 µM) of 69%. The target mRNA inhibition (KRAS; A431, 2 µM) was 56% and the target mRNA inhibition (KRAS; A431, 5 µM) was 80%.
With “TGGTGTAACATAGGTT (sugars kkddddddddddkeke, PS)” the target mRNA inhibition (KRAS; A431, 0.185 µM) was 28%, the target mRNA inhibition (KRAS; A431, 0.556 µM) was 62% and the target mRNA inhibition (KRAS; A431, 1.667 µM) was 74%. The target mRNA inhibition (KRAS; A431, 2 µM) was 67%, the target mRNA inhibition (KRAS; A431, 5 µM) was 87% and the target mRNA inhibition (KRAS; NCI-H460, 0.037 µM) was 64.3%.
“TGGTGTAACATAGGTT (sugars kkdddddddddkdkdk, PS)” gave a target mRNA inhibition (KRAS; A431, 0.185 µM) of 13%, a target mRNA inhibition (KRAS; A431, 0.556 µM) of 33% and a target mRNA inhibition (KRAS; A431, 1.667 µM) of 63%. For the same sequence, the target mRNA inhibition (KRAS; A431, 2 µM) was 57% and the target mRNA inhibition (KRAS; A431, 5 µM) was 75%.
In the case of TGTAGTTTCACATAGC (sugars k3 d10 k3, PS), the target mRNA inhibition (KRAS; A431, 0.185 µM) is reported as 28% and 3%, the target mRNA inhibition (KRAS; A431, 0.556 µM) is reported as 45% and 34% and the target mRNA inhibition (KRAS; A431, 2 µM) is reported as 59%. The target mRNA inhibition (KRAS; A431, 5 µM) was 75% and 69%.
“TGTTTATGCAATGTTA (sugars k3 d9 k3 e1, PS)” was tested, and the target mRNA inhibition (KRAS; A431, 0.185 µM) was 43%, the target mRNA inhibition (KRAS; A431, 0.556 µM) was 57% and the target mRNA inhibition (KRAS; A431, 1.667 µM) was 78%. For the same sequence, the target mRNA inhibition (KRAS; A431, 2 µM) was 72%, the target mRNA inhibition (KRAS; A431, 5 µM) was 90% and the target mRNA inhibition (KRAS; NCI-H460, 0.037 µM) was 65.6%.
In the case of “TGTTTATGCAATGTTA (sugars kkkddddddddkekek, PS)”, the target mRNA inhibition (KRAS; A431, 2 µM) is reported as 52%.
TTAATCCATTTATGTG (sugars k3 d10 k3, PS) showed a target mRNA inhibition (KRAS; A431, 2 µM) of 34%.
In the case of “TTAGTGATTAGGTCAA (sugars kkdddddddddkekek, PS)”, the target mRNA inhibition (KRAS; A431, 2 µM) is reported as 48%.
In the case of “TTAGTGATTAGGTCAA (sugars kkddddddddkekekk, PS)”, the target mRNA inhibition (KRAS; A431, 2 µM) is reported as 33%.
With TTATGGTTAGGGGAAT (sugars k3 d10 k3, PS) the target mRNA inhibition (KRAS; A431, 2 µM) was 21%.
In the case of TTCAAAGTTCACATAA (sugars k3 d10 k3, PS), the target mRNA inhibition (KRAS; A431, 2 µM) is reported as 7%.
Sequence TTCATTGTTTAAAAAA (sugars k3 d10 k3, PS) has a target mRNA inhibition (KRAS; A431, 2 µM) of 6%.
Sequence TTGAAAAGTGTTTATG (sugars k3 d10 k3, PS) has a target mRNA inhibition (KRAS; A431, 2 µM) of 26%.
In the case of “TTGATTTGTCAGCAGG (sugars kkddddddddddkeke, PS)”, the target mRNA inhibition (KRAS; A431, 0.185 µM) is reported as 25%, the target mRNA inhibition (KRAS; A431, 0.556 µM) is reported as 48% and the target mRNA inhibition (KRAS; A431, 1.667 µM) is reported as 62%. The target mRNA inhibition (KRAS; A431, 2 µM) was 66% and 45% and the target mRNA inhibition (KRAS; A431, 5 µM) was 83%.
“TTGATTTGTCAGCAGG (sugars kkdddddddddkdkdk, PS)” showed a target mRNA inhibition (KRAS; A431, 2 µM) of 53%.
TTGTACTAGTATGCCT (sugars k3 d10 k3, PS) showed a target mRNA inhibition (KRAS; A431, 2 µM) of 55%.
TTTAATGTCACAAGCA (sugars k3 d10 k3, PS) was tested, and the target mRNA inhibition (KRAS; A431, 0.037 µM) was 58%, the target mRNA inhibition (KRAS; A431, 2 µM) was 57% and the target mRNA inhibition (KRAS; A431, 5 µM) was 96% and 93%. It also gave a target mRNA inhibition (KRAS; NCI-H460, 0.037 µM) of 44.2%.
Work on TTTATGCAATGTTAAT (sugars k3 d10 k3, PS) yielded a target mRNA inhibition (KRAS; A431, 2 µM) of 34%.
TTTTAATGTCACAAGC (sugars k3 d10 k3, PS) gave a target mRNA inhibition (KRAS; A431, 2 µM) of 52%.

Reference: the OligoGym collection
